The text below walks through data of ChEMBL document CHEMBL4033663, “Design, combinatorial synthesis and biological evaluations of novel 3-amino-1'-((1-aryl-1H-1,2,3-triazol-5-yl)methyl)-2'-oxospiro[benzo[a] pyrano[2,3-c]phenazine-1,3'-indoline]-2-carbonitrile antitumor hybrid molecules” (Eur J Med Chem, 2017).

One test concerns L02. The test can be described thus: Antiproliferative activity against human L02 cells after 48 hrs by MTT assay. The class given is cell-based. The conditions noted are these: L02, 48 h.
In turn, `Cc1ccc(-n2nncc2CN2C(=O)C3(C(C#N)=C(N)Oc4c3c3nc5ccccc5nc3c3ccccc43)c3ccccc32)cc1C` (stereo unspecified) registered an IC50 of more than 50 µM.
The compound `CCc1ccccc1-n1nncc1CN1C(=O)C2(C(C#N)=C(N)Oc3c(N)cc4nc5ccccc5nc4c32)c2ccccc21` (stereo unspecified) returned an IC50 of 22.9 µM.
Compound `Cc1cc(C)cc(-n2nncc2CN2C(=O)C3(C(C#N)=C(N)Oc4c(N)cc5nc6ccccc6nc5c43)c3ccccc32)c1` (stereo unspecified) yielded an IC50 of more than 50 µM.
`N#CC1=C(N)Oc2c(c3nc4ccccc4nc3c3ccccc23)C12C(=O)N(Cc1cnnn1-c1cccc(Cl)c1)c1ccccc12` (stereo unspecified): the IC50 came out at 35.2 µM.
For `CCc1cccc(CC)c1-n1nncc1CN1C(=O)C2(C(C#N)=C(N)Oc3c(N)cc4nc5ccccc5nc4c32)c2ccccc21` (stereo unspecified), the IC50 is more than 50 µM.
For the compound `CC(=O)Nc1ccc(-n2nncc2CN2C(=O)C3(C(C#N)=C(N)Oc4c3c3nc5ccccc5nc3c3ccccc43)c3ccccc32)cc1` (stereo unspecified), the IC50 was more than 50 µM.
Turning to `CC[C@@]1(O)C(=O)OCc2c1cc1n(c2=O)Cc2cc3cc(O)ccc3nc2-1` [HYDROXYCAMPTOTHECIN], the midpoint of inhibition, the IC50, lay at 20.4 µM.

A further test has as its system MCF7. The test can be described thus: Antiproliferative activity against human MCF7 cells after 48 hrs by MTT assay. The class given is functional, cell-based. The conditions noted are these: MCF7, 48 h.
Take `Cc1ccc(-n2nncc2CN2C(=O)C3(C(C#N)=C(N)Oc4c3c3nc5ccccc5nc3c3ccccc43)c3ccccc32)cc1C` (stereo unspecified): the IC50 is more than 50 µM.
Same read-out and setting: the result for `CCc1ccccc1-n1nncc1CN1C(=O)C2(C(C#N)=C(N)Oc3c(N)cc4nc5ccccc5nc4c32)c2ccccc21` (stereo unspecified) reads 24.6 µM; that for `Cc1cc(C)cc(-n2nncc2CN2C(=O)C3(C(C#N)=C(N)Oc4c(N)cc5nc6ccccc6nc5c43)c3ccccc32)c1` (stereo unspecified), more than 50 µM.
In turn, `N#CC1=C(N)Oc2c(c3nc4ccccc4nc3c3ccccc23)C12C(=O)N(Cc1cnnn1-c1cccc(Cl)c1)c1ccccc12` (stereo unspecified) gave an IC50 of 43.6 µM.
Compound `CCc1cccc(CC)c1-n1nncc1CN1C(=O)C2(C(C#N)=C(N)Oc3c(N)cc4nc5ccccc5nc4c32)c2ccccc21` (stereo unspecified) returned an IC50 of more than 50 µM.
Still for that read-out and setting: the result for `CC(=O)Nc1ccc(-n2nncc2CN2C(=O)C3(C(C#N)=C(N)Oc4c3c3nc5ccccc5nc3c3ccccc43)c3ccccc32)cc1` (stereo unspecified) reads more than 50 µM.
`CC[C@@]1(O)C(=O)OCc2c1cc1n(c2=O)Cc2cc3cc(O)ccc3nc2-1` [HYDROXYCAMPTOTHECIN]: the IC50 was determined as 2.8 µM.

The subject of the next test is A549. The test can be described thus: Antiproliferative activity against human A549 cells after 48 hrs by MTT assay. The conditions noted are these: A549, 48 h. The test is classed as functional, cell-based.
`Cc1ccc(-n2nncc2CN2C(=O)C3(C(C#N)=C(N)Oc4c3c3nc5ccccc5nc3c3ccccc43)c3ccccc32)cc1C` (stereo unspecified) had an IC50 of more than 50 µM.
In turn, `CCc1ccccc1-n1nncc1CN1C(=O)C2(C(C#N)=C(N)Oc3c(N)cc4nc5ccccc5nc4c32)c2ccccc21` (stereo unspecified) came in with an IC50 of 24.6 µM.
On the same count and under the same terms, the result for `Cc1cc(C)cc(-n2nncc2CN2C(=O)C3(C(C#N)=C(N)Oc4c(N)cc5nc6ccccc6nc5c43)c3ccccc32)c1` (stereo unspecified) reads 31.2 µM.
The compound `N#CC1=C(N)Oc2c(c3nc4ccccc4nc3c3ccccc23)C12C(=O)N(Cc1cnnn1-c1cccc(Cl)c1)c1ccccc12` (stereo unspecified) had an IC50 of 32.6 µM.
`CCc1cccc(CC)c1-n1nncc1CN1C(=O)C2(C(C#N)=C(N)Oc3c(N)cc4nc5ccccc5nc4c32)c2ccccc21` (stereo unspecified) displayed an IC50 of more than 50 µM.
For `CC(=O)Nc1ccc(-n2nncc2CN2C(=O)C3(C(C#N)=C(N)Oc4c3c3nc5ccccc5nc3c3ccccc43)c3ccccc32)cc1` (stereo unspecified), the IC50 was more than 50 µM.

The test system of another test is HepG2. The test can be described thus: Antiproliferative activity against human HepG2 cells after 48 hrs by MTT assay. The test is classed as functional, cell-based. The conditions noted are these: HepG2, 48 h.
The compound `Cc1ccc(-n2nncc2CN2C(=O)C3(C(C#N)=C(N)Oc4c3c3nc5ccccc5nc3c3ccccc43)c3ccccc32)cc1C` (stereo unspecified) showed an IC50 of more than 50 µM.
Still for that read-out and setting: under `CCc1ccccc1-n1nncc1CN1C(=O)C2(C(C#N)=C(N)Oc3c(N)cc4nc5ccccc5nc4c32)c2ccccc21` (stereo unspecified) stands 17.9 µM; under `Cc1cc(C)cc(-n2nncc2CN2C(=O)C3(C(C#N)=C(N)Oc4c(N)cc5nc6ccccc6nc5c43)c3ccccc32)c1` (stereo unspecified), more than 50 µM; under `N#CC1=C(N)Oc2c(c3nc4ccccc4nc3c3ccccc23)C12C(=O)N(Cc1cnnn1-c1cccc(Cl)c1)c1ccccc12` (stereo unspecified), more than 50 µM.
In turn, `CCc1cccc(CC)c1-n1nncc1CN1C(=O)C2(C(C#N)=C(N)Oc3c(N)cc4nc5ccccc5nc4c32)c2ccccc21` (stereo unspecified) came in with an IC50 of 16.5 µM.
Still for that read-out and setting: the result for `CC(=O)Nc1ccc(-n2nncc2CN2C(=O)C3(C(C#N)=C(N)Oc4c3c3nc5ccccc5nc3c3ccccc43)c3ccccc32)cc1` (stereo unspecified) reads more than 50 µM; that for `CC[C@@]1(O)C(=O)OCc2c1cc1n(c2=O)Cc2cc3cc(O)ccc3nc2-1` [HYDROXYCAMPTOTHECIN], 10.3 µM.

In a further test the test system is HCT-116. The test can be described thus: Antiproliferative activity against human HCT116 cells after 48 hrs by MTT assay. The test is classed as functional, cell-based. The conditions noted are these: HCT-116, 48 h.
As for `Cc1ccc(-n2nncc2CN2C(=O)C3(C(C#N)=C(N)Oc4c3c3nc5ccccc5nc3c3ccccc43)c3ccccc32)cc1C` (stereo unspecified), the IC50 is more than 50 µM.
`CCc1ccccc1-n1nncc1CN1C(=O)C2(C(C#N)=C(N)Oc3c(N)cc4nc5ccccc5nc4c32)c2ccccc21` (stereo unspecified): inhibition was half-maximal at 10.3 µM (IC50).
With `Cc1cc(C)cc(-n2nncc2CN2C(=O)C3(C(C#N)=C(N)Oc4c(N)cc5nc6ccccc6nc5c43)c3ccccc32)c1` (stereo unspecified), the IC50 is more than 50 µM.
For the compound `N#CC1=C(N)Oc2c(c3nc4ccccc4nc3c3ccccc23)C12C(=O)N(Cc1cnnn1-c1cccc(Cl)c1)c1ccccc12` (stereo unspecified), the IC50 was more than 50 µM.
Turning to `CCc1cccc(CC)c1-n1nncc1CN1C(=O)C2(C(C#N)=C(N)Oc3c(N)cc4nc5ccccc5nc4c32)c2ccccc21` (stereo unspecified), the IC50 is 37.6 µM.
The compound `CC(=O)Nc1ccc(-n2nncc2CN2C(=O)C3(C(C#N)=C(N)Oc4c3c3nc5ccccc5nc3c3ccccc43)c3ccccc32)cc1` (stereo unspecified) returned an IC50 of more than 50 µM.
For `CC[C@@]1(O)C(=O)OCc2c1cc1n(c2=O)Cc2cc3cc(O)ccc3nc2-1` [HYDROXYCAMPTOTHECIN], the IC50 turned out to be 3.2 µM.

Another test has as its system HUVEC. The test can be described thus: Antiproliferative activity against human HUVEC cells after 48 hrs by MTT assay. The class given is cell-based.
Details: not given
`Cc1ccc(-n2nncc2CN2C(=O)C3(C(C#N)=C(N)Oc4c3c3nc5ccccc5nc3c3ccccc43)c3ccccc32)cc1C` (stereo unspecified) registered an IC50 of more than 50 µM.
With `CCc1ccccc1-n1nncc1CN1C(=O)C2(C(C#N)=C(N)Oc3c(N)cc4nc5ccccc5nc4c32)c2ccccc21` (stereo unspecified), the IC50 was more than 50 µM.
Consider `Cc1cc(C)cc(-n2nncc2CN2C(=O)C3(C(C#N)=C(N)Oc4c(N)cc5nc6ccccc6nc5c43)c3ccccc32)c1` (stereo unspecified), for which the IC50 was more than 50 µM.
Turning to `N#CC1=C(N)Oc2c(c3nc4ccccc4nc3c3ccccc23)C12C(=O)N(Cc1cnnn1-c1cccc(Cl)c1)c1ccccc12` (stereo unspecified), the IC50 was more than 50 µM.
Take `CCc1cccc(CC)c1-n1nncc1CN1C(=O)C2(C(C#N)=C(N)Oc3c(N)cc4nc5ccccc5nc4c32)c2ccccc21` (stereo unspecified): the IC50 was more than 50 µM.
In turn, `CC(=O)Nc1ccc(-n2nncc2CN2C(=O)C3(C(C#N)=C(N)Oc4c3c3nc5ccccc5nc3c3ccccc43)c3ccccc32)cc1` (stereo unspecified) registered an IC50 of more than 50 µM.
`CC[C@@]1(O)C(=O)OCc2c1cc1n(c2=O)Cc2cc3cc(O)ccc3nc2-1` [HYDROXYCAMPTOTHECIN]: the midpoint of inhibition, the IC50, lay at 18.2 µM.
